Each block holds one compound with its values, some of them ahead of it. Active and inactive are the calls of the source.
Legend:
[1] = molecular target: T1, DNA repair and recombination protein RAD54-like (Homo sapiens, UniProt Q92698); assay: inhibitors of human RAD54 branch migration, confirmation, biochemical, fluorescence, cherry-picked samples, dose series (AID 651657); format: functional
T1 sequence (Q92698 whole entry): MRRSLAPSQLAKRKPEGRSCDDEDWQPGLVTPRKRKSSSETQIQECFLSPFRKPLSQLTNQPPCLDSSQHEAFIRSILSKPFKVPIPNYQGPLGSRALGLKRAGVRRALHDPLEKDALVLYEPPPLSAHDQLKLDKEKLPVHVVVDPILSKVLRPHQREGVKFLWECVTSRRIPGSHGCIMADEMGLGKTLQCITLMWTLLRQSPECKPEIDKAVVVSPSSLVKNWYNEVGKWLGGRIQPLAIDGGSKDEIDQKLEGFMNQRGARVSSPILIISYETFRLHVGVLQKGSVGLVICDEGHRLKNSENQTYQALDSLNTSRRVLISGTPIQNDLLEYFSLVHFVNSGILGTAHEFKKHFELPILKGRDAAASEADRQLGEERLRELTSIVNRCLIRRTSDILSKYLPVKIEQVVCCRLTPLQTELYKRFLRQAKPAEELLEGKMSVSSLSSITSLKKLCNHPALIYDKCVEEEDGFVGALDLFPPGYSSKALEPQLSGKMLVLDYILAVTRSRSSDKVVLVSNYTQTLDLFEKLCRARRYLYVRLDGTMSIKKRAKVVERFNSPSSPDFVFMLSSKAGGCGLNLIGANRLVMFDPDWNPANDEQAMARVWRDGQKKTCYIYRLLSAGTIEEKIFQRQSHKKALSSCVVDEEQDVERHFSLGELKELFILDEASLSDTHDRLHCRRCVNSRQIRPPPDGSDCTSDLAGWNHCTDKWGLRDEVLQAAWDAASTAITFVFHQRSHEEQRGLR

[2] = molecular target: T2, DNA repair protein RAD52 homolog (Homo sapiens, UniProt P43351); format: functional, biochemical
T2 sequence (P43351 whole entry): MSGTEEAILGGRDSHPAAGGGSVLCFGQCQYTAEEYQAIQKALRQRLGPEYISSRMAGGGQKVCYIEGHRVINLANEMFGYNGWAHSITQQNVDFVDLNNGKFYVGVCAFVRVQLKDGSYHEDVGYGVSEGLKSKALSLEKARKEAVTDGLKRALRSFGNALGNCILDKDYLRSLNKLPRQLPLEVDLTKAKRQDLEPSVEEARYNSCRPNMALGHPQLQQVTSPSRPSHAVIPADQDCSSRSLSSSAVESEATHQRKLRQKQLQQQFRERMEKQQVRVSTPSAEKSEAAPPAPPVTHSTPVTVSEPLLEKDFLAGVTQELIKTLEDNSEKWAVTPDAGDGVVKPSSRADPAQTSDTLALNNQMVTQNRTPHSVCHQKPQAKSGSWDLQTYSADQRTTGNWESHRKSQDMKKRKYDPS

[3] = molecular target: T3, Polyadenylate-binding protein 1 (Homo sapiens, UniProt P11940); assay: PABP1 MLLE–PAM2 interaction inhibitors, dose response, miRNA deadenylation inhibitor project, biochemical, fluorescence polarization, Cy5-PAM2 peptide, secondary (AID 602260); format: functional; conditions: read-out: IC50_Mean
[4] = molecular target: T4, Tyrosine-protein phosphatase non-receptor type 11 (Homo sapiens, UniProt Q06124); assay: SHP2 phosphatase inhibition, dose response, selectivity assay for STEP inhibitor project, biochemical (AID 602367); format: functional; conditions: read-out: IC50_Mean
T4 sequence (Q06124 whole entry): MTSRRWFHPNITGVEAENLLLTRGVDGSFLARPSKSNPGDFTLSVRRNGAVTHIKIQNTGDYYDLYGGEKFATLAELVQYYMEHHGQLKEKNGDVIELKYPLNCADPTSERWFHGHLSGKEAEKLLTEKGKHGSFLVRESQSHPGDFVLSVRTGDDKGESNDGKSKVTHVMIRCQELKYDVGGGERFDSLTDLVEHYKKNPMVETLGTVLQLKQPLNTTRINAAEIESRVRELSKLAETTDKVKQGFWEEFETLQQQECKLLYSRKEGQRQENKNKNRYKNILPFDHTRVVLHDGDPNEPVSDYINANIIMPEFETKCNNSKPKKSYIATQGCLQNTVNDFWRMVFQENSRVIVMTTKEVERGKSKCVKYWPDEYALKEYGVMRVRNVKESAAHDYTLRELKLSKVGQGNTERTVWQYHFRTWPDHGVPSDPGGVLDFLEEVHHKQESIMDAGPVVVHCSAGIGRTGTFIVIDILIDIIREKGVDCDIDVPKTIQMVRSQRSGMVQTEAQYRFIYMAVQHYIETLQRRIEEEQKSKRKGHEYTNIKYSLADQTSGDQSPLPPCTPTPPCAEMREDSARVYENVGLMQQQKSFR

[5] = molecular target: T3, Polyadenylate-binding protein 1; assay: PABP1 MLLE–PAM2 binding inhibitor potency, dose response, biochemical, fluorescence polarization, FITC-PAM2 peptide (AID 602259); format: functional; conditions: read-out: IC50_Mean
[6] = molecular target: T5, Tyrosine-protein phosphatase non-receptor type 5 (Homo sapiens, UniProt P54829); assay: STEP phosphatase inhibitors, confirmation, biochemical, fluorescence intensity, uHTS hits (AID 602372); format: functional; conditions: read-out: IC50_Mean
T5 sequence (P54829 whole entry): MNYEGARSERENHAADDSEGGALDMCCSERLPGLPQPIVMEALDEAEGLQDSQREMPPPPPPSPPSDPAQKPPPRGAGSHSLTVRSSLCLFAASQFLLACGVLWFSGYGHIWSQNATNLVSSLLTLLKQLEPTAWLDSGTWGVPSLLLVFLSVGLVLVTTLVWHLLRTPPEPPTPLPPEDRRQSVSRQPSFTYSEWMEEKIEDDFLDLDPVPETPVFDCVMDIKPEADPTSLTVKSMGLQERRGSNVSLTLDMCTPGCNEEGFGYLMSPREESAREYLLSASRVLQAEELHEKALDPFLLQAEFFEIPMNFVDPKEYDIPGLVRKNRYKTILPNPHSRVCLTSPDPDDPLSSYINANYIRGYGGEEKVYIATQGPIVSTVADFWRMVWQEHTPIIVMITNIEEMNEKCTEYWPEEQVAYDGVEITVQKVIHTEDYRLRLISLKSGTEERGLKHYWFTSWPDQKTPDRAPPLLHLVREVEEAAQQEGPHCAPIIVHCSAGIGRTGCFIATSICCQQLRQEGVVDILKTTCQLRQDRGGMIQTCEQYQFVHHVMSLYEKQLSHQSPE

[7] = molecular target: Dual specificity protein phosphatase 3 (Homo sapiens, UniProt P51452); assay: VHR phosphatase inhibition, dose response, selectivity assay for STEP inhibitor project, biochemical (AID 602374); format: functional; conditions: read-out: IC50_Mean
Caspase-6 = molecular target: T6, Caspase-6 (Homo sapiens, UniProt P55212); assay: human caspase-6 inhibitors, dose response, biochemical, VEID-R110 fluorescence, cherry-pick (AID 720632)
T6 sequence (P55212 whole entry): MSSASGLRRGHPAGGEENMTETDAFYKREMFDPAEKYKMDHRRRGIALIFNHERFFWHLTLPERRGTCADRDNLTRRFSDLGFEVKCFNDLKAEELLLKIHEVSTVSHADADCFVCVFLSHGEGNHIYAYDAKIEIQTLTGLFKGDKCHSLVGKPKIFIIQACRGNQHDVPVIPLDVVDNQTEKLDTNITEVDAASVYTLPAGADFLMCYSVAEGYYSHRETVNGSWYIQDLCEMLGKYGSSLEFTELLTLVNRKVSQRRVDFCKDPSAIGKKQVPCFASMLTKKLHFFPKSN

[8] = molecular target: T7, Histone-lysine N-methyltransferase NSD2 (Homo sapiens, UniProt O96028); format: biochemical
T7 sequence (O96028 whole entry): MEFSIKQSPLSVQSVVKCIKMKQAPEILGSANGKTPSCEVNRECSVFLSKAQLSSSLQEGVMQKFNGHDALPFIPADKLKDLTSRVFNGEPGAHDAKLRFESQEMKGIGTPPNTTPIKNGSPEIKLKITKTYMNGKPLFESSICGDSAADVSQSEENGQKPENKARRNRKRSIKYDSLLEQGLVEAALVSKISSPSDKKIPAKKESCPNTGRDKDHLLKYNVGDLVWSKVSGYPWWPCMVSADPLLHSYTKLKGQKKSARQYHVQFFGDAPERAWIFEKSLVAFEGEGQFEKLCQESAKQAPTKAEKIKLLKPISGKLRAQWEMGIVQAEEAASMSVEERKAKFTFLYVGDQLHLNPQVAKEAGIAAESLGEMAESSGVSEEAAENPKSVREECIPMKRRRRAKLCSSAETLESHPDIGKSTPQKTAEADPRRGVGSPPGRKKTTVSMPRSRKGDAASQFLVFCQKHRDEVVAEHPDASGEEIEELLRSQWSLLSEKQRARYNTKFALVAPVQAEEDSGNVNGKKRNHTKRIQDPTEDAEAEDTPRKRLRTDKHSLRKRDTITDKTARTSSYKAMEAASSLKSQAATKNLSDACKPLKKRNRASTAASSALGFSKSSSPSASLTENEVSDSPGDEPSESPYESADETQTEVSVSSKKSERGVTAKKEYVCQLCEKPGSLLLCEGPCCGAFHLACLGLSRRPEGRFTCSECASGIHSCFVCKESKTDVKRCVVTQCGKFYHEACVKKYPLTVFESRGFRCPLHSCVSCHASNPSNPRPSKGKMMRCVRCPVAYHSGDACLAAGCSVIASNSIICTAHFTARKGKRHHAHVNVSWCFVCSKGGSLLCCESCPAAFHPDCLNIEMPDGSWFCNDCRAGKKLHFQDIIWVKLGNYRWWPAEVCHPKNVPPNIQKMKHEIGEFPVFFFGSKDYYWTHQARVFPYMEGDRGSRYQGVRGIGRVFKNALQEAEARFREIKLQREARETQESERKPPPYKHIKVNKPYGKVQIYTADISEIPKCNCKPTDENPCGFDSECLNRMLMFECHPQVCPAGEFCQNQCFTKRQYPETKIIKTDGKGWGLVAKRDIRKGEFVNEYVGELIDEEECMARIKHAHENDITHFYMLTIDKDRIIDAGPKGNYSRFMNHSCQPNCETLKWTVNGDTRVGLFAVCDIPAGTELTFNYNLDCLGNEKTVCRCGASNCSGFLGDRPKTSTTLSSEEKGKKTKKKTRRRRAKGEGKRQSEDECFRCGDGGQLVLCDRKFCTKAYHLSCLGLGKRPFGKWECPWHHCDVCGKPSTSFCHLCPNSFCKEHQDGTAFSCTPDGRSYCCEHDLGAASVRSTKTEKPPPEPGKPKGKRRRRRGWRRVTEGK

[9] = intracellular Trypanosoma cruzi inhibitors in host cells – cell-based, plate reader, cherry-pick samples, set 3, dose response (AID 651818); format: functional;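 also: compounds incubated with infected cells for about four days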

T3 sequence (P11940 whole entry): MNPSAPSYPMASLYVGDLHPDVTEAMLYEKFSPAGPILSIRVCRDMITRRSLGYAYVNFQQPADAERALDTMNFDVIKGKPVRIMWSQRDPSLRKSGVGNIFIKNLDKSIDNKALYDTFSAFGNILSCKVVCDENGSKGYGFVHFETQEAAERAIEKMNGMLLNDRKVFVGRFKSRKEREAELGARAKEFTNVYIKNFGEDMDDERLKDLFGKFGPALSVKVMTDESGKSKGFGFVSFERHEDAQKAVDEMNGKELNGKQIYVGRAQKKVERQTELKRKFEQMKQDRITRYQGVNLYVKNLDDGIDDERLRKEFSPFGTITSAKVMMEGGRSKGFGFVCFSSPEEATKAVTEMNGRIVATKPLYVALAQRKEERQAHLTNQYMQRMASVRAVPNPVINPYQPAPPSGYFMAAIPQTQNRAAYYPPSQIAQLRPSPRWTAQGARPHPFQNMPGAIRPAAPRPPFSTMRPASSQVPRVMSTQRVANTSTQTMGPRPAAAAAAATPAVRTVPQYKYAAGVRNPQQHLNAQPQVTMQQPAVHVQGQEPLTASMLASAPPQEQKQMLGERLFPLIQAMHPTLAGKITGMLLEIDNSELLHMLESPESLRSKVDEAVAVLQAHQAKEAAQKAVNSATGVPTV
Dual specificity protein phosphatase 3, sequence (P51452 whole entry): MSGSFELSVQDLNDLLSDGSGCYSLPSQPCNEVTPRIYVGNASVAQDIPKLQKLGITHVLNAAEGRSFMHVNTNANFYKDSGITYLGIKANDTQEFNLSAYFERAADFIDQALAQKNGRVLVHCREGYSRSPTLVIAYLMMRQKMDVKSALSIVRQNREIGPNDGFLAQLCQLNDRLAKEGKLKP

AC50 [1]: 27.2 µM (active) | AC50 [2]: 9 µM (active)
Structure (SMILES): CN(C)CCNc1ncnc2sc(-c3ccccc3)cc12

IC50 [3]: > 66 µM (inactive) | IC50 [4]: 1.04 µM (active) | IC50 [5]: > 66 µM (inactive) | IC50 [6]: 33.4 µM (inactive) | IC50 [7]: 3.43 µM (active) | AC50 (Caspase-6): 2.15 µM (active) | AC50 [8]: 6.49 µM (active)
Structure (SMILES): Nc1ccc2c(O)cc(S(=O)(=O)O)cc2c1

Structure (SMILES): C[C@H](CO)N1C[C@H](C)[C@H](CN(C)S(=O)(=O)c2ccc(F)cc2)Oc2ccc(NS(=O)(=O)c3ccc(F)cc3)cc2C1=O
AC50 [9]: 7.7 µM (active)

Reference: ChEMBL document CHEMBL1201862, “PubChem BioAssay data set” (2004)
